# Assay results reported in patent US9302999B2, “Substituted triazoles as herbicides” (E. I. DU PONT DE NEMOURS AND COMPANY, priority 2012, dated 2016).
# Legend:
# Format in all cases: in vivo
# [1] = test system: rice (Oryza sativa); experiment: Test C flooded paddy test: rice; settings: scale 0 to 100 (0 no effect, 100 complete control)
# Text: (§1) Plant species in the flooded paddy test consisted of rice (Oryza sativa), sedge, umbrella (small-flower umbrella sedge, Cyperus difformis), ducksalad (Heteranthera limosa) and barnyardgrass (Echinochloa crus-galli) grown to the 2-leaf stage for testing. At time of treatment, test pots were flooded to 3 cm above the soil surface, treated by application of test compounds directly to the paddy water, and then maintained at that water depth for the duration of the test.
# (§2) Treated plants and controls were maintained in a greenhouse for 13 to 15 days, after which time all species were compared to controls and visually evaluated. Plant response ratings, summarized in Table C, are based on a scale of 0 to 100 where 0 is no effect and 100 is complete control. A dash (-) response means no test result.
# [2] = test system: wheat (Triticum aestivum); experiment: Test A pre-/postemergence: wheat; settings: for Wheat plant response rating: Postemergence; for Plant response rating, Wheat: Preemergence
# Summary of the method: (§3)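 Pre: directed soil spray after planting in loam + sand. Post: same formulation (non-phytotoxic solvent + surfactant) on 1–2-leaf plants, 2–10 cm. Greenhouse ~10 d; visual injury 0–100 vs untreated.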
# [3] = test system: crabgrass, large (large crabgrass, Digitaria sanguinalis); experiment: Test A pre-/postemergence: crabgrass, large; settings: for Crabgrass, Large plant response rating: Postemergence; for Plant response rating, Crabgrass, Large: Preemergence
# Summary of the method: as §3
# [4] = test system: corn (Zea mays); experiment: Test A pre-/postemergence: corn; settings: for Corn plant response rating: Postemergence; for Plant response rating, Corn: Preemergence
# Summary of the method: as §3
# [5] = test system: foxtail, giant (giant foxtail, Setaria faberii); experiment: Test A pre-/postemergence: foxtail, giant; settings: for Foxtail, Giant plant response rating: Postemergence; for Plant response rating, Foxtail, Giant: Preemergence
# Summary of the method: as §3
# [6] = test system: velvetleaf (Abutilon theophrasti); experiment: Test A pre-/postemergence: velvetleaf; settings: for Velvetleaf plant response rating: Postemergence; for Plant response rating, Velvetleaf: Preemergence
# Summary of the method: as §3
# [7] = test system: barnyardgrass (Echinochloa crus-galli); experiment: Test A pre-/postemergence: barnyardgrass; settings: for Barnyardgrass plant response rating: Postemergence; for Plant response rating, Barnyardgrass: Preemergence
# Summary of the method: as §3
# [8] = test system: pigweed (Amaranthus retroflexus); experiment: Test A pre-/postemergence: pigweed; settings: for Pigweed plant response rating: Postemergence; for Plant response rating, Pigweed: Preemergence
# Summary of the method: as §3
# [9] = test system: morningglory (Ipomoea spp.); experiment: Test A pre-/postemergence: morningglory; settings: for Morningglory plant response rating: Postemergence; for Plant response rating, Morningglory: Preemergence
# Summary of the method: as §3
# [10] = test system: ducksalad (Heteranthera limosa); experiment: Test C flooded paddy test: ducksalad; settings: scale 0 to 100 (0 no effect, 100 complete control)
# Text: as §1, §2
# [11] = test system: barnyardgrass (Echinochloa crus-galli); experiment: Test C flooded paddy test: barnyardgrass; settings: scale 0 to 100 (0 no effect, 100 complete control)
# Text: as §1, §2
# [12] = test system: sedge, umbrella (small-flower umbrella sedge, Cyperus difformis); experiment: Test C flooded paddy test: sedge, umbrella; settings: scale 0 to 100 (0 no effect, 100 complete control)
# Text: as §1, §2
# [13] = Flood (flooded paddy test), 62 g ai/ha, visual rating after 13 to 15 days
# [14] = Flood (flooded paddy test), 125 g ai/ha, visual rating after 13 to 15 days
# [15] = Flood (flooded paddy test), 250 g ai/ha, visual rating after 13 to 15 days
# [16] = 125 g ai/ha, 0 to 100 scale, 0 is no effect, 100 is complete control
# [17] = 500 g ai/ha, visual rating on 0 to 100 scale (0 no effect, 100 complete control), approximately ten days
# [18] = 125 g ai/ha, 0 to 100 scale (0 no effect, 100 complete control)
# [19] = 500 g ai/ha, 0 to 100 scale, 0 is no effect, 100 is complete control
compound,measurement,setting,value
Cc1nn(-c2ccc(C(F)(F)F)cn2)nc1Cn1nc(C(F)(F)F)cc1C [Compound 21],"Plant response rating, Rice",[1]; [13],0
same,"Plant response rating, Rice",[1]; [14],0
same,"Plant response rating, Rice",[1]; [15],0
same,"Plant response rating, Rice","[1]; Flood, 31 g ai/ha",0
same,Wheat plant response rating,[2]; [16],0
same,Wheat plant response rating,[2]; [17],0
same,"Plant response rating, Wheat",[2]; [18],0
same,"Plant response rating, Wheat",[2]; [19],0
same,"Crabgrass, Large plant response rating",[3]; [16],20
same,"Crabgrass, Large plant response rating",[3]; [17],40
same,"Plant response rating, Crabgrass, Large",[3]; [18],0
same,"Plant response rating, Crabgrass, Large",[3]; [19],60
same,Corn plant response rating,[4]; [16],0
same,Corn plant response rating,[4]; [17],10
same,"Plant response rating, Corn",[4]; [18],0
same,"Plant response rating, Corn",[4]; [19],0
same,"Foxtail, Giant plant response rating",[5]; [16],0
same,"Foxtail, Giant plant response rating",[5]; [17],10
same,"Plant response rating, Foxtail, Giant",[5]; [18],0
same,"Plant response rating, Foxtail, Giant",[5]; [19],30
same,Velvetleaf plant response rating,[6]; [16],10
same,Velvetleaf plant response rating,[6]; [17],20
same,"Plant response rating, Velvetleaf",[6]; [18],0
same,"Plant response rating, Velvetleaf",[6]; [19],0
same,Barnyardgrass plant response rating,[7]; [16],0
same,Barnyardgrass plant response rating,[7]; [17],10
same,"Plant response rating, Barnyardgrass",[7]; [18],0
same,"Plant response rating, Barnyardgrass",[7]; [19],10
same,Pigweed plant response rating,[8]; [16],60
same,Pigweed plant response rating,[8]; [17],80
same,"Plant response rating, Pigweed",[8]; [18],0
same,"Plant response rating, Pigweed",[8]; [19],50
same,Morningglory plant response rating,[9]; [16],20
same,Morningglory plant response rating,[9]; [17],40
same,"Plant response rating, Morningglory",[9]; [18],0
same,"Plant response rating, Morningglory",[9]; [19],0
same,"Plant response rating, Ducksalad",[10]; [13],0
same,"Plant response rating, Ducksalad",[10]; [14],0
same,"Plant response rating, Ducksalad",[10]; [15],0
same,"Plant response rating, Ducksalad","[10]; Flood, 31 g ai/ha",0
same,"Plant response rating, Barnyardgrass",[11]; [13],0
same,"Plant response rating, Barnyardgrass",[11]; [14],0
same,"Plant response rating, Barnyardgrass",[11]; [15],0
same,"Plant response rating, Barnyardgrass","[11]; Flood, 31 g ai/ha",0
same,"Plant response rating, Sedge, Umbrella",[12]; [13],0
same,"Plant response rating, Sedge, Umbrella",[12]; [14],0
same,"Plant response rating, Sedge, Umbrella",[12]; [15],0
same,"Plant response rating, Sedge, Umbrella","[12]; Flood, 31 g ai/ha",0
Cc1nn(-c2ccncc2)nc1C(=O)c1cccc(C(F)(F)F)c1 [Compound 22],"Plant response rating, Rice",[1]; [13],0
same,"Plant response rating, Rice",[1]; [14],0
same,"Plant response rating, Rice",[1]; [15],0
same,"Plant response rating, Rice","[1]; Flood, 31 g ai/ha",0
same,Wheat plant response rating,[2]; [16],10
same,"Plant response rating, Wheat",[2]; [18],0
same,"Plant response rating, Wheat",[2]; [19],0
same,"Crabgrass, Large plant response rating",[3]; [16],40
same,"Crabgrass, Large plant response rating",[3]; [17],60
same,"Plant response rating, Crabgrass, Large",[3]; [18],10
same,"Plant response rating, Crabgrass, Large",[3]; [19],40
same,Corn plant response rating,[4]; [16],10
same,Corn plant response rating,[4]; [17],20
same,"Plant response rating, Corn",[4]; [18],0
same,"Plant response rating, Corn",[4]; [19],0
same,"Foxtail, Giant plant response rating",[5]; [16],20
same,"Foxtail, Giant plant response rating",[5]; [17],50
same,"Plant response rating, Foxtail, Giant",[5]; [18],20
same,"Plant response rating, Foxtail, Giant",[5]; [19],80
same,Velvetleaf plant response rating,[6]; [16],10
same,Velvetleaf plant response rating,[6]; [17],30
same,"Plant response rating, Velvetleaf",[6]; [18],0
same,"Plant response rating, Velvetleaf",[6]; [19],0
same,Barnyardgrass plant response rating,[7]; [16],10
same,Barnyardgrass plant response rating,[7]; [17],20
same,"Plant response rating, Barnyardgrass",[7]; [18],0
same,"Plant response rating, Barnyardgrass",[7]; [19],10
same,Pigweed plant response rating,[8]; [16],50
same,Pigweed plant response rating,[8]; [17],80
same,"Plant response rating, Pigweed",[8]; [18],10
same,"Plant response rating, Pigweed",[8]; [19],10
same,Morningglory plant response rating,[9]; [16],10
same,Morningglory plant response rating,[9]; [17],20
same,"Plant response rating, Morningglory",[9]; [18],0
same,"Plant response rating, Morningglory",[9]; [19],0
same,"Plant response rating, Ducksalad",[10]; [13],0
same,"Plant response rating, Ducksalad",[10]; [14],0
same,"Plant response rating, Ducksalad",[10]; [15],0
same,"Plant response rating, Ducksalad","[10]; Flood, 31 g ai/ha",0
same,"Plant response rating, Barnyardgrass",[11]; [13],0
same,"Plant response rating, Barnyardgrass",[11]; [14],0
same,"Plant response rating, Barnyardgrass",[11]; [15],0
same,"Plant response rating, Barnyardgrass","[11]; Flood, 31 g ai/ha",0
same,"Plant response rating, Sedge, Umbrella",[12]; [13],0
same,"Plant response rating, Sedge, Umbrella",[12]; [14],0
same,"Plant response rating, Sedge, Umbrella",[12]; [15],0
same,"Plant response rating, Sedge, Umbrella","[12]; Flood, 31 g ai/ha",0
